Patent US9533952B2, “N-prop-2-ynyl carboxamide derivatives and their use as TRPA1 antagonists” (Orion Corporation, priority 2012, dated 2017)

Target: TRPA1 (Homo sapiens, UniProt O75762)
Test: Determination of TRPA1 activity in vitro (TRPA1 antagonism in vitro)
Assay type: cell-based
Settings: procedure of Wei et al., Anesthesiology 111 (2009) 147-154

Chain of TRPA1 (O75762 whole entry): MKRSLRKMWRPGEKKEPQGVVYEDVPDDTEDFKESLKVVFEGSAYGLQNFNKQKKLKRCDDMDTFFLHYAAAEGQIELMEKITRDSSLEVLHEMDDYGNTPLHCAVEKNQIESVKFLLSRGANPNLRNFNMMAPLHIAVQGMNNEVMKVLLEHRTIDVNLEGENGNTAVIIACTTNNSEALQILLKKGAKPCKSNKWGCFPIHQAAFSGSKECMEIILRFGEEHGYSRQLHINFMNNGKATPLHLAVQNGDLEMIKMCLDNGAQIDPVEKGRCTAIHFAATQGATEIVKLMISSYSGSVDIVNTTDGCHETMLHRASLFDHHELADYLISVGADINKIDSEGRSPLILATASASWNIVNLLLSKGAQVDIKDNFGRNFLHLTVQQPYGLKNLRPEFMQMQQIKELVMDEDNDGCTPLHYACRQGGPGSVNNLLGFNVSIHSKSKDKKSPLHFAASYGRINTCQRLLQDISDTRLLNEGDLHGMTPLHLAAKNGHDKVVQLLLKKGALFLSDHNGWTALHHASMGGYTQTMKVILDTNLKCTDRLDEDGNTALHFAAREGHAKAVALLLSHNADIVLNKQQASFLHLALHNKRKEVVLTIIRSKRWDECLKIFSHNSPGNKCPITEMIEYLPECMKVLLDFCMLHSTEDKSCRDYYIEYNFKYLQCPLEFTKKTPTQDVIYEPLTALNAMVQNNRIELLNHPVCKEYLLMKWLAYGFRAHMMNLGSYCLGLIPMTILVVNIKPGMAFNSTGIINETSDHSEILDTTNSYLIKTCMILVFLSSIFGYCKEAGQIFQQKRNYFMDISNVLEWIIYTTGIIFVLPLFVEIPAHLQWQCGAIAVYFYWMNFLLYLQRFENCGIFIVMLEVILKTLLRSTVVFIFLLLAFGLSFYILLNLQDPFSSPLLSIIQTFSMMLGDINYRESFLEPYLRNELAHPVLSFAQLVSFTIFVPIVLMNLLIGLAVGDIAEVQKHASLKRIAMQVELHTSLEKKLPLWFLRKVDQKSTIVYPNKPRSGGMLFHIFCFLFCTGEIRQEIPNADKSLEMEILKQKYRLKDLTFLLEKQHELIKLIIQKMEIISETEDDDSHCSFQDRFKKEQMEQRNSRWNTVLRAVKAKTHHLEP

SMILES | IC50 [µM]
C#CC(C)(C)NC(=O)c1cc(F)c(F)cc1NC(C)(C)C [Example 82, 2-(tert-Butylamino)-4,5-difluoro-N-(2-methylbut-3-yn-2-yl)benzamide] | 5.4
C#CC(C)(C)NC(=O)c1ccc(F)cc1NC(C)C [Example 83, 4-Fluoro-2-(isopropylamino)-N-(2-methylbut-3-yn-2-yl)benzamide] | 2.9
C#CC(C)(C)NC(=O)c1ccc(C(F)(F)F)cc1NC [Example 84, 2-(Methylamino)-N-(2-methylbut-3-yn-2-yl)-4-(trifluoromethyl)-benzamide] | 7.5
C#CC(C)(C)NC(=O)c1cc(OC(F)(F)F)ccc1NC [Example 85, 2-(Methylamino)-N-(2-methylbut-3-yn-2-yl)-5-(trifluoromethoxy)-benzamide] | 13.2
C#CC(C)(C)NC(=O)c1cc(F)c(F)cc1NC1CC1 [Example 86, 2-(Cyclopropylamino)-4,5-difluoro-N-(2-methylbut-3-yn-2-yl) benzamide] | 2.2
C#CC(C)(NC(=O)c1cc(F)c(F)cc1NCC)C(C)C (stereo not shown) [Example 87, N-(3,4-Dimethylpent-1-yn-3-yl)-2-(ethylamino)-4,5-difluorobenzamide] | 0.6
C#CC(C)(C)NC(=O)c1cc(OC)c(OC)cc1NCC(C)C [Example 88, 2-(Isobutylamino)-4,5-dimethoxy-N-(2-methylbut-3-yn-2-yl)benzamide] | 14.2
C#CC(C)(C)NC(=O)c1ccc(C(F)(F)F)cc1NCCOC [Example 89, 2-(2-Methoxyethylamino)-N-(2-methylbut-3-yn-2-yl)-4-(trifluoro-methyl)benzamide] | 8.6
C#CC(C)(C)NC(=O)c1ccc(F)cc1NC1CC1 [Example 90, 2-(Cyclopropylamino)-4-fluoro-N-(2-methylbut-3-yn-2-yl)benzamide] | 4.8
C#CC(C)(C)NC(=O)c1cc(F)ccc1NC1CC1 [Example 91, 2-(Cyclopropylamino)-5-fluoro-N-(2-methylbut-3-yn-2-yl)benzamide] | 7
C#CC(C)(C)NC(=O)c1cc(F)ccc1NC(C)C [Example 92, 5-Fluoro-2-(isopropylamino)-N-(2-methylbut-3-yn-2-yl)benzamide] | 12.3
C#CC(C)(C)NC(=O)c1cc(C)ccc1NC(C)C [Example 93, 2-(Isopropylamino)-5-methyl-N-(2-methylbut-3-yn-2-yl)benzamide] | 11.4
C#CC(C)(C)NC(=O)c1ccc(C)cc1NCCC(F)(F)F [Example 94, 4-Methyl-N-(2-methylbut-3-yn-2-yl)-2-(3,3,3-trifluoropropylamino)-benzamide] | 1.8
C#CC(C)(C)NC(=O)c1cc(Cl)cc(F)c1NC(C)C [Example 95, 5-Chloro-3-fluoro-2-(isopropylamino)-N-(2-methylbut-3-yn-2-yl)-benzamide] | 5.6
C#CC(C)(C)NC(=O)c1cc(OC)ccc1NCCCC(F)(F)F [Example 96, 5-Methoxy-N-(2-methylbut-3-yn-2-yl)-2-(4,4,4-trifluorobutylamino)-benzamide] | 3.7
C#CC(C)(C)NC(=O)c1cccnc1NCc1cccc(OC)c1 [Example 97, 2-(3-Methoxybenzylamino)-N-(2-methylbut-3-yn-2-yl)nicotinamide] | 14
C#CC(C)(C)NC(=O)c1cccnc1NCc1cccc(F)c1 [Example 98, 2-(3-Fluorobenzylamino)-N-(2-methylbut-3-yn-2-yl)nicotinamide] | 5.3
C#CC(C)(C)NC(=O)c1cccnc1NCCCC [Example 100, 2-(Butylamino)-N-(2-methylbut-3-yn-2-yl)nicotinamide] | 6.6
C#CC(C)(C)NC(=O)c1cccnc1NC(C)(C)C [Example 101, 2-(tert-Butylamino)-N-(2-methylbut-3-yn-2-yl)nicotinamide] | 11.9
C#CC(C)(CC)NC(=O)c1cc(F)ccc1NCCCC (stereo not shown) [Example 102, 2-(Butylamino)-5-fluoro-N-(3-methylpent-1-yn-3-yl)benzamide] | 0.3
C#CC(CC)(CC)NC(=O)c1cc(F)ccc1NCC [Example 103, 2-(Ethylamino)-N-(3-ethylpent-1-yn-3-yl)-5-fluorobenzamide] | 1.8
C#CC(C)(C)NC(=O)c1cc(F)ccc1NCCC(F)(F)F [Example 104, 5-Fluoro-N-(2-methylbut-3-yn-2-yl)-2-(3,3,3-trifluoropropylamino)benzamide] | 1.7
C#CC(C)(C)NC(=O)c1ccc(C(F)(F)F)nc1NCC(C)C [Example 105] | 0.7
C#CC(C)(C)NC(=O)c1ccc(C(F)(F)F)nc1NC(C)C [Example 106, 2-(Isopropylamino)-N-(2-methylbut-3-yn-2-yl)-6-(trifluoromethyl)-nicotinamide] | 1.3
C#CC(C)(C)NC(=O)c1ccc(C(F)(F)F)nc1NCC [Example 107, 2-(Ethylamino)-N-(2-methylbut-3-yn-2-yl)-6-(trifluoromethyl)-nicotinamide] | 3.7

SMILES | IC50 [µM]
C#CC(C)(C)NC(=O)c1cnc(C(F)(F)F)nc1NC(C)(C)C [Example 108, 4-(tert-Butylamino)-N-(2-methylbut-3-yn-2-yl)-2-(trifluoromethyl)pyrimidine-5-carboxamide] | 5
C#CC(C)(C)NC(=O)c1cnc(C(F)(F)F)nc1NC(C)(C)CC [Example 109, N-(2-Methylbut-3-yn-2-yl)-4-(tert-pentylamino)-2-(trifluoromethyl)-pyrimidine-5-carboxamide] | 5.1
C#CC(C)(C)NC(=O)c1cnc(C(F)(F)F)nc1NC(C)C [Example 110, 4-(Isopropylamino)-N-(2-methylbut-3-yn-2-yl)-2-(trifluoromethyl)-pyrimidine-5-carboxamide] | 12
C#CC(C)(C)NC(=O)c1ccc(C(F)(F)F)nc1NC(C)(C)C [Example 111, 2-(tert-Butylamino)-N-(2-methylbut-3-yn-2-yl)-6-(trifluoromethyl)-nicotinamide] | 2.4
C#CC(C)(C)NC(=O)c1ccc(Cl)nc1NC(C)C [Example 112, 6-Chloro-2-(isopropylamino)-N-(2-methylbut-3-yn-2-yl)nicotinamide] | 3.4
C#CC(C)(C)NC(=O)c1ccc(Cl)nc1NCC [Example 113, 6-Chloro-2-(ethylamino)-N-(2-methylbut-3-yn-2-yl)nicotinamide] | 7.2
C#CC(C)(C)NC(=O)c1cc(F)c(N2CCOCC2)nc1NC(C)C [Example 114, 5-Fluoro-2-(isopropylamino)-N-(2-methylbut-3-yn-2-yl)-6-morpholinonicotinamide] | 4.3
C#CC(C)(C)NC(=O)c1ccc(C(F)(F)F)nc1NC1CCOCC1 [Example 115, N-(2-Methylbut-3-yn-2-yl)-2-(tetrahydro-2H-pyran-4-ylamino)-6-(trifluoromethyl)nicotinamide] | 4.8
C#CC(C)(C)NC(=O)c1ccc(C(F)(F)F)nc1NCC1CCOCC1 [Example 116, N-(2-Methylbut-3-yn-2-yl)-2-((tetrahydro-2H-pyran-4-yl)methyl-amino)-6-(trifluoromethyl)nicotinamide] | 1.6
C#CC(C)(C)NC(=O)c1ccc(C(F)(F)F)nc1NC1CC1 [Example 117, 2-(Cyclopropylamino)-N-(2-methylbut-3-yn-2-yl)-6-(trifluoromethyl)-nicotinamide] | 2.3
C#CC(C)(C)NC(=O)c1cccc2c(C)c(C)[nH]c12 [Example 118, 2,3-Dimethyl-N-(2-methylbut-3-yn-2-yl)-1H-indole-7-carboxamide] | 12.9
C#CC(CC)(CC)NC(=O)c1cccc2cc[nH]c12 [Example 119, N-(3-Ethylpent-1-yn-3-yl)-1H-indole-7-carboxamide] | 18.7
C#CC(CC)(CC)NC(=O)c1cccc2c1NCCC2 [Example 120, N-(3-Ethylpent-1-yn-3-yl)-1,2,3,4-tetrahydroquinoline-8-carboxamide] | 8.3
C#CC(C)(C)NC(=O)c1cccnc1Nc1cccc(F)c1 [Example 121, 2-(3-Fluorophenylamino)-N-(2-methylbut-3-yn-2-yl)nicotinamide] | 1.1
C#CC(C)(C)NC(=O)c1cccnc1Nc1ccccc1F [Example 122, 2-(2-Fluorophenylamino)-N-(2-methylbut-3-yn-2-yl)nicotinamide] | 4.8
C#CC(C)(C)NC(=O)c1cccnc1NC1CCC(F)(F)CC1 [Example 123, 2-(4,4-Difluorocyclohexylamino)-N-(2-methylbut-3-yn-2-yl)nicotinamide] | 3.8
C#CC(C)(C)NC(=O)c1cc(Br)ccc1NCCC [Example 124, 5-Bromo-NV-(2-methylbut-3-yn-2-yl)-2-(propylamino)benzamide] | 0.5
C#CC(C)(C)NC(=O)c1cccnc1NC(C)(C)C(F)(F)F [Example 125, N-(2-Methylbut-3-yn-2-yl)-2-(1,1,1-trifluoro-2-methylpropan-2-ylamino)nicotinamide] | 4.6
C#CC(C)(C)NC(=O)c1cscc1NCCC [Example 126, N-(2-Methylbut-3-yn-2-yl)-4-(propylamino)thiophene-3-carboxamide] | 8
C#CC(C)(C)NC(=O)c1cccnc1Nc1ccccc1 [Example 127, N-(2-Methylbut-3-yn-2-yl)-2-(phenylamino)nicotinamide] | 4.4
C#CC(C)(C)NC(=O)c1cc(C(F)(F)F)cnc1NC(C)(C)C [Example 128, 2-(tert-Butylamino)-N-(2-methylbut-3-yn-2-yl)-5-(trifluoromethyl)-nicotinamide] | 1.1
C#CC(C)(C)NC(=O)c1cc(Cl)cnc1Nc1ccccc1 [Example 129, 5-Chloro-N-(2-methylbut-3-yn-2-yl)-2-(phenylamino)nicotinamide] | 0.7
C#CC(C)(C)NC(=O)c1ccsc1NCCCC [Example 130, 2-(Butylamino)-N-(2-methylbut-3-yn-2-yl)thiophene-3-carboxamide] | 2.1
C#CC(C)(C)NC(=O)c1cccnc1Nc1ccc(F)cc1 [Example 131, 2-(4-Fluorophenylamino)-N-(2-methylbut-3-yn-2-yl)nicotinamide] | 1.4
